Laboratory results from patent US4510323A, “Cis-bicyclo[3.3.0]octane derivatives, medicaments containing them and processes for their preparation and use” (Gruenenthal GmbH, priority 1981, dated 1985).

What was measured:
[1] = system: conscious, spontaneous hypertensive rats; assay: Blood pressure lowering activity in conscious, spontaneous hypertensive rats; assay type: in vivo, rat; settings: intravenous; for relative activity: blood pressure lowering, conscious SHR, 5,6-dihydroprostacyclin = 1.0; for ED (20 mm Hg): Rattus norvegicus, read-out: ED20 (dose causing a drop of the diastolic blood pressure by 20 mm Hg)
From the text: Blood pressure lowering activity in conscious,
spontaneous hypertensive rats (measurement via in-
dwelling catheter, intravenous administration of the […]

[2] = system: human thrombocytes; assay: Inhibition of arachidonic acid induced aggregation of human thrombocytes; assay type: cell-based; settings: for IC50: arachidonic acid induced aggregation of human thrombocytes; for relative activity: in comparison to prostacyclin = 1.0
From the text: The aggregation of human thrombocytes induced by arachidonic acid may be prevented e.g. by prostacyclin.

[3] = molecular target: T1, adenylate cyclase in horse thrombocytes (Equus caballus, UniProt F7CK38); assay: Stimulation of adenylate cyclase (c-AMP formation from ATP) in horse thrombocytes; assay type: biochemical
T1 construct: Gs-coupled adenylate cyclase stimulation, cAMP formation from ATP as read-out
From the text: The enzyme adenylate cyclase catalyzes the formation of adenosine 3',5'-cyclic monophosphate (c-AMP) from adenosine triphosphate (ATP).
*Dose causing a threefold stimulation of the cAMP formation from ATP.

[4] = system: narcotized rats; assay: ADP induced fall in platelet count in-vivo in narcotized rats, intravenous administration; design: species or system rat; settings: urethane narcosis, 5,6-dihydroprostacyclin = 1.0
[5] = system: narcotized rats; assay: Blood pressure lowering activity in narcotized rats (pentobarbital narcosis); assay type: in vivo, rat; settings: intravenous; for ED (20 mm Hg): Rattus norvegicus, pentobarbital narcosis, read-out: ED20 (dose causing a drop of the diastolic blood pressure by 20 mm Hg); for relative activity: blood pressure lowering, prostacyclin = 1.0
From the text: Blood pressure lowering activity in nar-
cotized rats (pentobarbital narcosis; intravenous

[6] = system: narcotized rats; assay: Thrombocyte aggregation inhibition after oral administration (ADP induced fall in thrombocyte count in-vivo) in narcotized rats; design: species or system rat; settings: for % inhibition of platelet aggregation: narcotized rats (urethane)
Method: In this experiment the product obtained in Example 2 was administered orally in a dose of 4.64 mg/kg of narcotized rats (urethane narcosis). The thrombocyte aggregation inhibiting activity was determined at 30, 60 and 150 minutes after administration of the compound (Method: ADP induced fall in thrombocyte count in-vivo, determined by a "Technicon Autocounter").

[7] = system: narcotized rats; assay: Persistence of blood pressure lowering activity after supramaximal hypotensive dose in narcotized rats; assay type: in vivo, rat; settings: for half time of b.p.l.a. (blood pressure lowering activity) / rate of decay of blood pressure lowering activity: 1 mg/kg intravenous, narcotized rats (pentobarbital)
Method: On intravenous administration of a supra-
maximal hypotensive dose (1 mg/kg) of the test com-
pounds in narcotized rats (pentobarbital narcosis) the
following persistence characteristics of the blood
pressure lowering activity ("b.p.l.a.") were observed: […]

[8] = system: narcotized rats; settings: stated as known; cited from earlier work
[9] = system: platelet aggregation induced by arachidonic acid; settings: in vitro, Whittle et al., page 611; cited from earlier work
[10] = conscious spontaneous hypertensive rats, indwelling catheter

T1 sequence (F7CK38 1-384): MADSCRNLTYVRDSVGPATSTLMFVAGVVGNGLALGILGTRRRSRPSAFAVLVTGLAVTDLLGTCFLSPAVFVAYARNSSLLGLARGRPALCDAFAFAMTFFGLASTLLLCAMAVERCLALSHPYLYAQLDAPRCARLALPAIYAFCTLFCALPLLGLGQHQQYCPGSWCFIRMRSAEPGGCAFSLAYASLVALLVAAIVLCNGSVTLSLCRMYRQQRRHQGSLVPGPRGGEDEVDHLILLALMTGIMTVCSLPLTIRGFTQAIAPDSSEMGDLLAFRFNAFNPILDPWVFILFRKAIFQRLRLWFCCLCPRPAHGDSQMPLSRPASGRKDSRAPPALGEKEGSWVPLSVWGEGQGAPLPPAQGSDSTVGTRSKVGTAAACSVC

Compound	relative activity [1]	IC50 [2] [nM]	relative activity [2]	EC200% (dose causing a threefold stimulation of the cAMP formation from ATP) [3] [µmol/L]	relative activity [4]	ED (20 mm Hg) [1, 10] [mg/kg]	further results
CCCCCC(O)C=CC1C(O)CC2OC(CCCCC(=O)O)CC21 (centres unmarked) [5,6-Dihydroprostacyclin, 5,6-dihydroprostacyclin, reference compound]	1.0	180	0.043	15.0	1.0	–	ED20 (dose causing a drop of the diastolic blood pressure by 20 mm Hg) [1, 10]: 0.005 mg/kg; relative activity ([3]; relative to 5,6-dihydroprostacyclin = 1.0, adenylate cyclase stimulation): 1.0
CCCCC[C@H](O)/C=C/[C@@H]1[C@H]2CC(=Cc3cccc(C(=O)O)c3)C[C@H]2C[C@H]1O [Compound A, 3-(m-carboxybenzylidene)-6-beta-(3'S-hydroxy-1'E-octenyl)-7-alpha-hydroxy- cis-bicyclo[3.3.0]octane, reference compound]	0.003	120	0.065	0.4	0.1	1.9	–
O=C(O)c1cccc(C=C2C[C@H]3C[C@@H](O)[C@H](/C=C/[C@@H](O)C4CCCCC4)[C@H]3C2)c1 [Example 1e, 3EZ-(m-carboxybenzylidene)-6β-(3'S-hydroxy-3'-cyclohexyl-1'E-propenyl)-7α-hydroxy-cis-bicyclo[3.3.0]octane]	0.068	80	0.098	0.15	1.0	0.073	–
O=C(O)c1cccc(/C=C2\C[C@H]3C[C@@H](O)[C@H](/C=C/[C@@H](O)C4CCCCC4)[C@H]3C2)c1 [Example 2, 3E-(m-Carboxybenzylidene)-6β-(3'S-hydroxy-3'-cyclohexyl-1'E-propenyl)-7α-hydroxy-cis-bicyclo[3.3.0]octane]	0.053	70	0.11	0.13	1.0	0.094	ED (20 mm Hg) [5]: 5.39 mg/kg; relative activity [5]: 0.03; % inhibition of platelet aggregation ([6]; 30 min after oral 4.64 mg/kg): 38%; % inhibition of platelet aggregation ([6]; 60 min after oral 4.64 mg/kg): 26%; % inhibition of platelet aggregation ([6]; 150 min after oral 4.64 mg/kg): 22%; duration of strong thrombocyte aggregation inhibition ([6]; oral administration): at least 2.5 hours; half time of b.p.l.a. (blood pressure lowering activity) [7]: 25.96 min; rate of decay of blood pressure lowering activity [7]: 2.6 % per min.; duration of action relative to prostacyclin ([7]; blood pressure lowering activity, from Table 5): about 5 times
O=C(O)c1cccc(C=C2CC3CC(O)C(C=CC(O)C45CC6CC(CC(C6)C4)C5)C3C2)c1 (stereo not drawn) [Example 3e, 3EZ-(m-Carboxybenzylidene)-6β-[3'S-hydroxy-3'-(1"-adamantyl)-1'E-propenyl]-7α-hydroxy-cis-bicyclo[3.3.0]octane]	< 0.005	–	–	0.18	–	> 1	–
CCCCC[C@H](O)/C=C/[C@@H]1[C@H]2C/C(=C/CCCC(=O)O)O[C@H]2C[C@H]1O [Prostacyclin, reference compound]	–	7.8	–	–	–	–	ED (20 mm Hg) [5]: 0.16 mg/kg; relative activity [5]: 1.0; half time of b.p.l.a. (blood pressure lowering activity) [7]: 5.89 min; rate of decay of blood pressure lowering activity [7]: 11 % per min.; effectiveness on oral administration [8]: ineffective
CCCCC[C@H](O)/C=C/[C@@H]1[C@H]2C/C(=C/CCCC(=O)O)C[C@H]2C[C@H]1O [carbacyclin]	–	–	–	–	–	–	activity relative to prostacyclin as inhibitor of platelet aggregation [9]: 0.02 times
